Measured values taken from the NIST ThermoML archive (doi:10.1021/acs.jced.7b00035).
Where “and” joins values, the source holds several entries; their conditions need not be identical. Equal values may be shown once. ± gives the expanded uncertainty stated by the source.

Key:
[1] = 101.33 kPa, Liquid, Vibrating tube method
[2] = xn = mol fraction of the nth substance listed; conditions: 100 kPa, Liquid, Vibrating tube method
[3] = excess molar enthalpy (molar enthalpy of mixing); xn = mol fraction of the nth substance listed; conditions: 100 kPa, Liquid, Flow calorimetry

## CC(=O)CC(C)C [4-methylpentan-2-one]
[1]; 288.15 K
  mass density: 805.12 ± 0.61 kg/m3
[1]; 298.15 K
  mass density: 795.98 ± 0.61 kg/m3
[1]; 308.15 K
  mass density: 786.75 ± 0.61 kg/m3
[1]; 318.15 K
  mass density: 777.46 ± 0.61 kg/m3

## CCCCC(C)=O [2-hexanone] + O
[2]; 288.15 K, x1 = 0.00087
  mass density: 998.466 ± 0.037 kg/m3 and 998.439 ± 0.037 kg/m3
[2]; 288.15 K, x1 = 0.00116
  mass density: 998.248 ± 0.057 kg/m3 and 998.255 ± 0.042 kg/m3
[2]; 288.15 K, x1 = 0.00145
  mass density: 998.054 ± 0.038 kg/m3
[2]; 288.15 K, x1 = 0.001739
  mass density: 997.852 ± 0.039 kg/m3 and 997.853 ± 0.039 kg/m3
[2]; 298.15 K, x1 = 0.000869
  mass density: 996.347 ± 0.15 kg/m3
[2]; 298.15 K, x1 = 0.00087
  mass density: 996.364 ± 0.15 kg/m3
[2]; 298.15 K, x1 = 0.001159
  mass density: 996.128 ± 0.11 kg/m3
[2]; 298.15 K, x1 = 0.00116
  mass density: 996.137 ± 0.11 kg/m3
[2]; 298.15 K, x1 = 0.001448
  mass density: 995.926 ± 0.17 kg/m3
[2]; 298.15 K, x1 = 0.00145
  mass density: 995.903 ± 0.17 kg/m3
[2]; 298.15 K, x1 = 0.001737
  mass density: 995.664 ± 0.94 kg/m3
[2]; 298.15 K, x1 = 0.00174
  mass density: 995.681 ± 0.94 kg/m3
[2]; 308.15 K, x1 = 0.000869
  mass density: 993.309 ± 0.039 kg/m3 and 993.32 ± 0.039 kg/m3
[2]; 308.15 K, x1 = 0.001158
  mass density: 993.074 ± 0.08 kg/m3
[2]; 308.15 K, x1 = 0.001159
  mass density: 993.08 ± 3.3 kg/m3
[2]; 308.15 K, x1 = 0.001447
  mass density: 992.84 ± 0.095 kg/m3
[2]; 308.15 K, x1 = 0.001448
  mass density: 992.834 ± 4 kg/m3
[2]; 308.15 K, x1 = 0.001735
  mass density: 992.573 ± 1.6 kg/m3
[2]; 308.15 K, x1 = 0.001737
  mass density: 992.571 ± 2.4 kg/m3
[2]; 318.15 K, x1 = 0.000868
  mass density: 989.45 ± 0.046 kg/m3
[2]; 318.15 K, x1 = 0.000869
  mass density: 989.446 ± 0.046 kg/m3
[2]; 318.15 K, x1 = 0.00087
  mass density: 989.455 ± 0.046 kg/m3
[2]; 318.15 K, x1 = 0.001158
  mass density: 989.173 ± 0.07 kg/m3
[2]; 318.15 K, x1 = 0.001159
  mass density: 989.168 ± 0.071 kg/m3 and 989.197 ± 0.28 kg/m3
[2]; 318.15 K, x1 = 0.001447
  mass density: 988.934 ± 0.059 kg/m3
[2]; 318.15 K, x1 = 0.001448
  mass density: 988.931 ± 0.059 kg/m3 and 988.956 ± 0.32 kg/m3
[2]; 318.15 K, x1 = 0.001736
  mass density: 988.678 ± 0.47 kg/m3
[2]; 318.15 K, x1 = 0.001737
  mass density: 988.651 ± 0.47 kg/m3 and 988.636 ± 0.73 kg/m3
[3]; 288.15 K, x1 = 0.00087
  excess molar enthalpy: -0.00256 kcal/mol and -0.00254 kcal/mol
[3]; 288.15 K, x1 = 0.00116
  excess molar enthalpy: -0.00343 kcal/mol and -0.00339 kcal/mol
[3]; 288.15 K, x1 = 0.00145
  excess molar enthalpy: -0.00423 kcal/mol and -0.00421 kcal/mol
[3]; 288.15 K, x1 = 0.001739
  excess molar enthalpy: -0.00503 kcal/mol and -0.00504 kcal/mol
[3]; 298.15 K, x1 = 0.000869
  excess molar enthalpy: -0.00197 ± 0.00021 kcal/mol
[3]; 298.15 K, x1 = 0.00087
  excess molar enthalpy: -0.00198 ± 0.00021 kcal/mol
[3]; 298.15 K, x1 = 0.001159
  excess molar enthalpy: -0.00264 ± 0.000287 kcal/mol
[3]; 298.15 K, x1 = 0.00116
  excess molar enthalpy: -0.00262 ± 0.000287 kcal/mol
[3]; 298.15 K, x1 = 0.001448
  excess molar enthalpy: -0.00321 ± 0.000621 kcal/mol
[3]; 298.15 K, x1 = 0.00145
  excess molar enthalpy: -0.00329 ± 0.000621 kcal/mol
[3]; 298.15 K, x1 = 0.001737
  excess molar enthalpy: -0.00394 ± 0.000287 kcal/mol
[3]; 298.15 K, x1 = 0.00174
  excess molar enthalpy: -0.0039 ± 0.000287 kcal/mol
[3]; 308.15 K, x1 = 0.000869
  excess molar enthalpy: -0.00138 ± 0.000196 kcal/mol
[3]; 308.15 K, x1 = 0.001158
  excess molar enthalpy: -0.0018 ± 0.000239 kcal/mol
[3]; 308.15 K, x1 = 0.001159
  excess molar enthalpy: -0.00181 ± 0.000645 kcal/mol
[3]; 308.15 K, x1 = 0.001447
  excess molar enthalpy: -0.00226 ± 0.000335 kcal/mol
[3]; 308.15 K, x1 = 0.001448
  excess molar enthalpy: -0.00224 ± 0.00022 kcal/mol
[3]; 308.15 K, x1 = 0.001735
  excess molar enthalpy: -0.00273 ± 0.000287 kcal/mol
[3]; 308.15 K, x1 = 0.001737
  excess molar enthalpy: -0.00273 ± 0.000382 kcal/mol
[3]; 318.15 K, x1 = 0.000868
  excess molar enthalpy: -0.000825 ± 0.000198 kcal/mol
[3]; 318.15 K, x1 = 0.000869
  excess molar enthalpy: -0.000817 ± 0.000198 kcal/mol
[3]; 318.15 K, x1 = 0.00087
  excess molar enthalpy: -0.000813 ± 0.000198 kcal/mol
[3]; 318.15 K, x1 = 0.001158
  excess molar enthalpy: -0.0011 ± 0.000263 kcal/mol
[3]; 318.15 K, x1 = 0.001159
  excess molar enthalpy: -0.00111 kcal/mol and -0.00109 kcal/mol
[3]; 318.15 K, x1 = 0.001447
  excess molar enthalpy: -0.00133 ± 0.000359 kcal/mol
[3]; 318.15 K, x1 = 0.001448
  excess molar enthalpy: -0.00135 kcal/mol and -0.00132 kcal/mol
[3]; 318.15 K, x1 = 0.001736
  excess molar enthalpy: -0.00161 ± 0.000359 kcal/mol
[3]; 318.15 K, x1 = 0.001737
  excess molar enthalpy: -0.00162 kcal/mol and -0.00165 kcal/mol

## CCCCC(C)=O [2-hexanone]
[1]; 288.15 K
  mass density: 815.72 ± 0.78 kg/m3
[1]; 298.15 K
  mass density: 806.7 ± 0.77 kg/m3
[1]; 308.15 K
  mass density: 797.6 ± 0.77 kg/m3
[1]; 318.15 K
  mass density: 788.45 ± 0.77 kg/m3

## CCCC(C)=O [pentan-2-one]
[1]; 288.15 K
  mass density: 811.06 ± 0.61 kg/m3
[1]; 298.15 K
  mass density: 801.41 ± 0.61 kg/m3
[1]; 308.15 K
  mass density: 791.66 ± 0.61 kg/m3
[1]; 318.15 K
  mass density: 781.83 ± 0.61 kg/m3

## CC(=O)C(C)C [3-methyl-2-butanone]
[1]; 288.15 K
  mass density: 808.3 ± 0.7 kg/m3
[1]; 298.15 K
  mass density: 798.51 ± 0.7 kg/m3
[1]; 308.15 K
  mass density: 788.6 ± 0.7 kg/m3
[1]; 318.15 K
  mass density: 778.62 ± 0.7 kg/m3

## CCC(=O)CC [pentan-3-one]
[1]; 288.15 K
  mass density: 818.9 ± 0.61 kg/m3
[1]; 298.15 K
  mass density: 809.16 ± 0.61 kg/m3
[1]; 308.15 K
  mass density: 799.32 ± 0.61 kg/m3
[1]; 318.15 K
  mass density: 789.41 ± 0.61 kg/m3
